Assay results reported in US20160113932A1, “TREATMENT OF CANCERS USING PI3 KINASE ISOFORM MODULATORS” (INFINITY PHARMACEUTICALS, INC., priority 2013, published 2016).
Values after ≈ are worked out from the molar mass of the structure shown. Values joined by “and” are separate entries in the source; they are usually repeats but may differ in a detail not shown here. Equal values may be shown once. Read-outs that look alike come from different tables or passages of the source.

Assays:
[1] = system: CD63 expression on the surface of activated CCR3+ basophils; experiment: Basophil activation, ex vivo anti-FcεR1 activation assay, healthy subjects; format: in vivo, human; details: single dose administration
HH = experiment: CTCL cytotoxicity, 72 hours; format: cell-based; details: HH cells, vs MJ or HuT78
Experimental: (§1) MJ and HuT78 cells were grown in IMDM 20% FBS, and HH cells were grown in RPMI 10% FBS.

HuT78 = experiment: CTCL cytotoxicity, 72 hours; format: cell-based; details: HuT78 cells
Experimental: as §1

MJ = experiment: CTCL cytotoxicity, 72 hours; format: cell-based; details: MJ cells
Experimental: as §1

[2] = Plasma protein binding in vitro, rat; format: in vitro ADME; details: all concentrations tested
PI3K δ = PI3K δ (Homo sapiens, UniProt O00329); experiment: Plasma concentration for suppression of PI3K-δ (PK/PD); parameters: endogenous in cells; host or cells: RAJI (human Burkitt lymphoma)
[3] = system: serum cytokines/chemokines and matrix metalloproteinases; experiment: Serum cytokines/chemokines in patients, Milliplex 96-well immuno-assay; format: in vivo, human; details: CLL patients pooled, 8-75 mg BID, C1D8 and/or C2D1
Experimental: Serum concentrations of a panel of human cytokines/chemokines were determined by Milliplex 96-well immuno-assay as described below.
the blood was allowed to clot for at least 30 minutes before centrifugation for 10 minutes at 1000×g. Serum was removed and either assayed immediately or aliquoted and stored at ≦−20° C. When using frozen samples, it is recommended to thaw the samples completely, mix well by vortexing and centrifuge prior to use in the assay to remove particulates.
1.0 mL deionized water was added to the bottle containing lyophilized Serum Matrix (catalog number MX HSM from MILLIPLEX® Map), and was allowed to be mixed will for at least 10 minutes for complete reconstitution.
200 μL of wash buffer was added into each well of the plate. The plate was sealed and mixed on a plate shaker for 10 minutes at room temperature (20-25° C.). The wash buffer was decanted and the residual amount was removed from all wells by inverting the plate and tapping it smartly onto absorbent towels several times. 25 μL of each standard or control was added into the appropriate wells. […]
The plate was run on Luminex 200™, HTS, FLEXMAP 3D™ or MAGPIX® with xPONENT software. The Median Fluorescent Intensity (MFI) data was saved and analyzed using a 5-parameter logistic or spline curve-fitting method for calculating cytokine/chemokines concentrations in samples. […]

Toledo = experiment: DLBCL cellular growth inhibition assay; format: cell-based; details: Homo sapiens
OCI-LY3 = experiment: DLBCL cellular growth inhibition assay; format: cell-based; details: Homo sapiens
Experimental: Activation of the PI3K pathway is an important component of normal B-cell receptor (BCR) signaling and has been implicated in the pathogenesis of DLBCL. […] There was rapid modulation of phospho-AKT and phospho-PRAS40 by 30 minutes, whereas modulation of phospho-S6 was not detected until after 8 hours.

[4] = Absolute bioavailability / pharmacokinetics in Beagle dogs; format: in vivo; details: Dog, PO, 5 mg/kg

PI3K δ, sequence (O00329 whole entry): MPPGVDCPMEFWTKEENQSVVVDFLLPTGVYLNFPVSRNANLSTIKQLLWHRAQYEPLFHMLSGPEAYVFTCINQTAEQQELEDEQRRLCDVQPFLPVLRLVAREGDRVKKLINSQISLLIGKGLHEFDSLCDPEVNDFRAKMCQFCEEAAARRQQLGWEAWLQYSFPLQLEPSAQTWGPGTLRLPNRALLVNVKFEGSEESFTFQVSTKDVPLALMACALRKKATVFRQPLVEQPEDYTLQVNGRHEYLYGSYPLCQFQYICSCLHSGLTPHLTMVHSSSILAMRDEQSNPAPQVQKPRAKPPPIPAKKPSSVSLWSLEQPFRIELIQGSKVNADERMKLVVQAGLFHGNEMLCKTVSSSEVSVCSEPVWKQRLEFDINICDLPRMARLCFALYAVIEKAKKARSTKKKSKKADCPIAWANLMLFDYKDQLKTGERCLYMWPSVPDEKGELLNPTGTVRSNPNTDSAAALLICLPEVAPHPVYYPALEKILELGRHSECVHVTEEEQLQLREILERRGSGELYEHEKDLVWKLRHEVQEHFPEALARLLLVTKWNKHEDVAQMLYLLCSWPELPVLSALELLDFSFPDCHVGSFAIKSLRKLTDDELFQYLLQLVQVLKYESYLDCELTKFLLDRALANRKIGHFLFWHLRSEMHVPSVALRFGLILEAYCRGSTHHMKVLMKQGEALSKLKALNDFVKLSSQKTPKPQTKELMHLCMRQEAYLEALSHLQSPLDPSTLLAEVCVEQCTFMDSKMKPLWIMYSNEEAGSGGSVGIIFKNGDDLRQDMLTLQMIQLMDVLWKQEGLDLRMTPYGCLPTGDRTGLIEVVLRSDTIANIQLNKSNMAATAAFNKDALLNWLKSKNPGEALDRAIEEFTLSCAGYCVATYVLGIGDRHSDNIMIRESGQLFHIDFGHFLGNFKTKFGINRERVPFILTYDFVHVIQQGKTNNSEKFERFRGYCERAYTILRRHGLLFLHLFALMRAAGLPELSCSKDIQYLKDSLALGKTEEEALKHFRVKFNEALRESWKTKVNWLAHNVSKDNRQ
PI3K δ, sequence (P27986 whole entry partner): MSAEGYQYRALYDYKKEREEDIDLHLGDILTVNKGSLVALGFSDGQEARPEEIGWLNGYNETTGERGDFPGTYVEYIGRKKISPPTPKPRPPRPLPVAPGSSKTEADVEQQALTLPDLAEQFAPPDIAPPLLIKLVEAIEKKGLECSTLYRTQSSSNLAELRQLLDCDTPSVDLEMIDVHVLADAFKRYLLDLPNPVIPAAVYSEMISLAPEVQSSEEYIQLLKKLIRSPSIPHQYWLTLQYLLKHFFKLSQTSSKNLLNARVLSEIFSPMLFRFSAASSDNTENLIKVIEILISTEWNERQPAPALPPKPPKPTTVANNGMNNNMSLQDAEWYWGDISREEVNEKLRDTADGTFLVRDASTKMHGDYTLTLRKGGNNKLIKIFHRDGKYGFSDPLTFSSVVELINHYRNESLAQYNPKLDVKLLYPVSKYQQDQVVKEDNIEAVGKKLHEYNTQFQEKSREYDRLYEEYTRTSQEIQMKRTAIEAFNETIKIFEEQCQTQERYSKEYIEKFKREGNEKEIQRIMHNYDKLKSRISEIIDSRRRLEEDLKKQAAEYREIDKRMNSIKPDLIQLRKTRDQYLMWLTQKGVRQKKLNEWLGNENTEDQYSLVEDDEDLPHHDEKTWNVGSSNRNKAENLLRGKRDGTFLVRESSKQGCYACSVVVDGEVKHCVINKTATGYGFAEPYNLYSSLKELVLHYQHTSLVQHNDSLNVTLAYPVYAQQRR

C[C@H](Nc1ncnc2[nH]cnc12)c1cc2cccc(Cl)c2c(=O)n1-c1ccccc1 [Compound 292]
dose at which maximal PD response was achieved [1]: 5 mg | cytotoxicity, sensitivity (HH): more sensitive | cytotoxicity, sensitivity (HuT78): medium sensitivity | cytotoxicity, sensitivity (MJ): resistant | percent free in plasma compared with human plasma [2]: consistently higher | IC90 (PI3K δ): 0.361 µg/mL (≈ 0.866 µM) | analytes decreased after treatment compared to baseline [3]: 10 of 72 analytes | IC50 (Toledo): > 50 µM | IC50 (OCI-LY3): > 50 µM | Foral ([4]; calculated using 0.5 mg/kg IV dose as reference and AUC0-last): 97g'i % | Foral ([4]; calculated using 1 mg/kg IV dose as reference and AUC0-last): 40% and 40h'i % | Any AE (25 mg BID (n = 34)): 27 | Any AE, Grade 3 (25 mg BID (n = 34)): 7 | Any AE, Grade 4 (25 mg BID (n = 34)): 5 | New Grade 3 ALT (25 mg BID (n = 34)): 3 | New Grade 3 ANC (25 mg BID (n = 34)): 2 | New Grade 4 ANC (25 mg BID (n = 34)): 4 | Related AE (25 mg BID (n = 34)): 18 | Related Grade 3 AE (25 mg BID (n = 34)): 4/4 | Related Grade 4 AE (25 mg BID (n = 34)): 4/4 | new Grade >3 neutropenia (20 patients, 8-50 mg BID): 6 n | patients with AEs Grade >3 (20 patients, 8-50 mg BID): 7 patients | patients with adverse events (AEs) (20 patients, 8-50 mg BID): 13 patients | dose limiting toxicity observed to date (20 patients, 15 mg dose cohort): Grade 4 neutropenia | discontinuations due to treatment related AEs (55 patients): three | DLTs (55 patients, 8-75 mg BID): Grade 4 neutropenia (15 mg BID) and Grade 3 cellulitis (wound infection, 75 mg BID) | dose-related trends in related Grade 3 or Grade 4 AEs (55 patients, 8-75 mg BID): No dose-related trends | Any AE (Safety Population (n = 55)): 46 | Any AE, Grade 3 (Safety Population (n = 55)): 18 | Any AE, Grade 4 (Safety Population (n = 55)): 8 | New Grade 3 ALT (Safety Population (n = 55)): 5 | New Grade 3 ANC (Safety Population (n = 55)): 10 | New Grade 4 ANC (Safety Population (n = 55)): 5 | Related AE (Safety Population (n = 55)): 31 | Related Grade 3 AE (Safety Population (n = 55)): 14 | Related Grade 4 AE (Safety Population (n = 55)): 6 | Deaths on Study (Safety Population (n = 55), all due to disease progression): 3 n
